pKi: −log10 of the molar value.
Tests used:
[1] = Rat colon fecal homogenate stability; assay type: in vitro ADME; conditions: male, rat colon fecal homogenate supernatant, 10 μM, read-out: T½ (In vitro colonic stability, loss of pro-drug)
Procedure: The objective of this study was to determine the stability of the present compounds in rat colon fecal homogenate, i.e. the half-life for decomposition in the presence of the β-glucuronidase in rat colon feces.
Following sacrifice of a naïve male rat (˜300 g) by cardiac puncture exsanguination, the colon was ligated and removed to an anaerobic chamber (AS-580, Anaerobe Systems). The fecal content was removed within the chamber and was diluted 1:10 (1 gram to 9 mL phosphate buffer) and then homogenized using a handheld Omni Tissue Master. The fecal homogenate was centrifuged at 2000 g for 10 min to remove bulk and the supernatant was removed and used for the incubations.
Test articles and a positive control (sulfasalazine) were prepared as 10 mM DMSO stocks. The final substrate concentration of each assay was 10 μM (30 μM for compound 5). Reactions were started by adding a 5 μL aliquot of diluted test compound stock into 300 μL of rat fecal supernatant-homogenate. At 0, 15, 30, 60, 90, and 120 min post reaction initiation, a 50 μL aliquot was removed into 200 μL of acetonitrile with 3% formic acid and an internal standard molecule. All samples were centrifuged at 2000 g for 10 min after which 50 μL of supernatant was diluted into 150 μL of water for analysis on an LC-MS system. In vitro half-lives for loss of pro-drug were calculated as follows: (T½=0.693/elimination rate constant).

JAK2 = JAK2 (Homo sapiens, UniProt O60674); experiment: Biochemical JAK kinase assay (LanthaScreen) JAK2
Procedure: A panel of four LanthaScreen JAK biochemical assays (JAK1, 2, 3 and Tyk2) were carried in a common kinase reaction buffer (50 mM HEPES, pH 7.5, 0.01% Brij-35, 10 mM MgCl2, and 1 mM EGTA). Recombinant GST-tagged JAK enzymes and a GFP-tagged STAT1 peptide substrate were obtained from Life Technologies.
Serially diluted compounds were pre-incubated with each of the four JAK enzymes and the substrate in white 384-well microplates (Corning) at ambient temperature for 1 h. ATP was subsequently added to initiate the kinase reactions in 10 μL total volume, with 1% DMSO. […] The JAK1 kinase activity was also tested at 1 mM ATP concentration. […] The plates were allowed to incubate at ambient temperature for 1 h before being read on the EnVision reader (Perkin Elmer).
For dose-response analysis, percent inhibition data were plotted vs. compound concentrations, and IC50 values were determined from a 4-parameter robust fit model with the Prism software (GraphPad Software). Results were expressed as pIC50 (negative logarithm of IC50) and subsequently converted to pKi (negative logarithm of dissociation constant, Ki) using the Cheng-Prusoff equation.

β-glucuronidase = β-glucuronidase (Escherichia coli, UniProt P05804); experiment: Metabolic stability of compound 1 in β-glucuronidase from E. coli; assay type: in vitro ADME; conditions: purified β-glucuronidase from E. coli, β-glucuronidase 100 Units/mL, 37° C.
Procedure: The incubations were quenched at timepoints 0, 1, 2, 3, 5, 10, 15, 30, 60, and 90 min by addition of 100 μL of ACN. Samples were diluted with water+1% formic acid (4×) and analyzed using a Thermo Q-Exactive™ LC-MS system.

splenic NK cells = experiment: Immunosuppression effects in mouse splenic natural killer (NK) cells; assay type: in vivo
Procedure: Adult male Balb/C mice (12-14 weeks of age) from Harlan were used for the study. […] Spleens were harvested 30 min or 3 h post last dose and crushed immediately for cell subtype staining. Prior to fixation, fluorophore-labelled antibodies for CD19 (FITC; B cells), CD3e (PE; pan T cells) and DX5 (APC; NK cells) were incubated with splenocyte samples from each animal to allow for simultaneous, multiple subtype % analysis on the flow cytometer. The number of total spleen cells for each animal was measured by Scepter™ 2.0 Handheld Automated Cell Counter.
The absolute number of lymphocyte subtype population (e.g., splenic B, T and NK cells) was calculated from the percentage of each subtype times total spleen cells for each animal. A one way ANOVA, with Dunnett's post hoc test, was used to compare the splenic lymphocytes number of the vehicle and test compound groups. The a level was set at p<0.05. Data were presented as the mean SEM for each group.

[2] = Metabolic stability in homogenates from rat upper and lower intestinal content; assay type: in vitro ADME; conditions: 37° C.; for half-life: 10 μM; for half-life at 10 μM: rat, diluted 1:10 in DPBS
Procedure: The conversion of compound 1 to tofacitinib was evaluated in the intestinal lumen content prepared from the various GI segments isolated from freshly sacrificed rats. Each segment of content from the duodenum, jejunum, ileum, and colon was diluted 1:10 in Dulbecco's phosphate buffer saline (DPBS) solution. […] The incubation was conducted in a water bath at 37° C. and time points were taken at 0, 5, 10, 20, 40 and 60 min. The total incubation volume was 400 μL and 40 μL aliquots were taken at each time point and diluted into 160 μL of 97% ACN+3% formic acid+an internal standard. The samples were centrifuged at 2200 rcf for 10 min and 50 μL of supernatant was diluted into 150 μL of water+1% formic acid.

Chain of JAK2 (O60674 whole entry): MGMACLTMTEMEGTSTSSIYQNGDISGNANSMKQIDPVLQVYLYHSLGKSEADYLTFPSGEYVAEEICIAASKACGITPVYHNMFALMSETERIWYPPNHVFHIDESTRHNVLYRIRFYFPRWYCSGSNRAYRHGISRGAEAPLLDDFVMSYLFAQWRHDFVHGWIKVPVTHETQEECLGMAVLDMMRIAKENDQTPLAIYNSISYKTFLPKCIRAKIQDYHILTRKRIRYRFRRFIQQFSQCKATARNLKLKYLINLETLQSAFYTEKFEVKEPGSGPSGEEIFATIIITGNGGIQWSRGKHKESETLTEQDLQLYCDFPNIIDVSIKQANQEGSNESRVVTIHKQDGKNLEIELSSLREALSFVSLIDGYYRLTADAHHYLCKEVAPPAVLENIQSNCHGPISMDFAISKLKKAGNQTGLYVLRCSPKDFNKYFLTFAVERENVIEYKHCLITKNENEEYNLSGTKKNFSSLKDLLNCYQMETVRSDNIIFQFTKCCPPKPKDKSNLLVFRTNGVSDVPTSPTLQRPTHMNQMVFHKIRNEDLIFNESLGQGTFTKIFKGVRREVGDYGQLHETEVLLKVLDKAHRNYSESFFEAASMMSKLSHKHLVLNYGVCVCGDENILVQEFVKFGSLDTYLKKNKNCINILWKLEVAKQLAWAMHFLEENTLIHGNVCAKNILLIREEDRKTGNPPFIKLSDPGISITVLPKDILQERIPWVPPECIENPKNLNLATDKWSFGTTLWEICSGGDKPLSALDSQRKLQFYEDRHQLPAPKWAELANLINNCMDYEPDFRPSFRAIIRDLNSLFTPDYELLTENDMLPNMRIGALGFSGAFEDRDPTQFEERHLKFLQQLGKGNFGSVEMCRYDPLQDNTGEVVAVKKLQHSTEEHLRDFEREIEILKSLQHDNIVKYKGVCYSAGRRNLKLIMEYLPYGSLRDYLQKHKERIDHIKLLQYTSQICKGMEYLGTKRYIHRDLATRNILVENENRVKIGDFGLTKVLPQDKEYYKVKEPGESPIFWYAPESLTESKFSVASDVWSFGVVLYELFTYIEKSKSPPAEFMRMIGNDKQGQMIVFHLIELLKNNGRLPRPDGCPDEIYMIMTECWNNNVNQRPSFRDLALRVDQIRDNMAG
Chain of β-glucuronidase (P05804 whole entry): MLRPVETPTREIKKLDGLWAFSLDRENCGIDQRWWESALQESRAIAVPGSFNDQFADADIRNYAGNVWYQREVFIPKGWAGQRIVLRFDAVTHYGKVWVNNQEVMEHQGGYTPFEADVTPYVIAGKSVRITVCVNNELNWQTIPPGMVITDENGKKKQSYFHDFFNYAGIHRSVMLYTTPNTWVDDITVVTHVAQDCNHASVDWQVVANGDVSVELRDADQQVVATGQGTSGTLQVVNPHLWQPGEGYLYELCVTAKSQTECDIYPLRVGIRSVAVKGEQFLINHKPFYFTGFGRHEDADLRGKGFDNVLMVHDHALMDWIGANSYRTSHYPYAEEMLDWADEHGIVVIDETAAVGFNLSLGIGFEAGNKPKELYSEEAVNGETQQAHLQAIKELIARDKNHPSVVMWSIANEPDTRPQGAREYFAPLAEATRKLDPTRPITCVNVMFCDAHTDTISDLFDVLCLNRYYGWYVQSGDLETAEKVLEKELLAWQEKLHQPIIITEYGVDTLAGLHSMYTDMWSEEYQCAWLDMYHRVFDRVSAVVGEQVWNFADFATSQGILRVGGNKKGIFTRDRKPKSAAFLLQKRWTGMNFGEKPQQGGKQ

SMILES: C[C@@H]1CCN(C(=O)CC#N)C[C@@H]1N(C)c1ncnc2c1ccn2C(=O)N(C)CCN(C)C(=O)OCc1ccc(O[C@@H]2O[C@H](C(=O)O)[C@@H](O)[C@H](O)[C@H]2O)c([N+](=O)[O-])c1 [Compound 1, (2S,3S,4S,5R,6S)-6-(4-((((2-(4-(((3R,4R)-1-(2-cyanoacetyl)-4-methylpiperidin-3-yl)(methyl)amino)-N-methyl-7H-pyrrolo[2,3-d]pyrimidine-7-carboxamido)ethyl)(methyl)carbamoyl)oxy)methyl)-2-nitrophenoxy)-3,4,5-trihydroxytetrahydro-2H-pyran-2-carboxylic acid]
- half-life at 10 μM [1]: 1 to 15 min
- pKi (JAK2): < 6.20
- half-life at 30 μM (β-glucuronidase): < 5 min
- splenic NK cell counts (splenic NK cells; PO (BID) doses up to 10 mg/kg (maximum dose tested), three days, naïve mice): unaffected
- Systemic functional activity (splenic NK depletion) (splenic NK cells; mouse, oral dosing for three days): >10 mg/kg
- half-life ([2]; Colon content): <5 min
- half-life ([2]; Duodenum content): >60 min
- half-life ([2]; Jejunum content): >60 min
- half-life at 10 μM ([2]; colon lumen content, Colon content): < 5 min
- half-life at 10 μM ([2]; duodenum lumen content, Duodenum content): > 60 min
- half-life at 10 μM ([2]; ileum lumen content, Ileum content): 34 min
- half-life at 10 μM ([2]; jejunum lumen content, Jejunum content): > 60 min

— US20210179655A1, “Prodrugs of a JAK Inhibitor Compound for Treatment of Gastrointestinal Inflammatory Disease” (THERAVANCE BIOPHARMA R&D IP, LLC, priority 2015, published 2021)
